Measurements published in article PMC5526998, “Structural analysis of the regulatory mechanism of MarR protein Rv2887 in M. tuberculosis” (Scientific Reports, 2017).

Target: Rv2887 (Mycobacterium tuberculosis, UniProt P9WME9)
Test: biochemical

Rv2887, sequence (P9WME9 whole entry): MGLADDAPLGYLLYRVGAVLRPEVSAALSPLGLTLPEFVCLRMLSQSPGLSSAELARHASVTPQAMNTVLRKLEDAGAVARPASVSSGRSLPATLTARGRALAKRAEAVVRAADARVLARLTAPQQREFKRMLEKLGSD

Row | Structure (SMILES) | Kd [µM]
1 | Nc1ccc(C(=O)O)c(O)c1 [PAS] | 183
2 | Cc1ccc(C)c(OCCCC(C)(C)C(=O)O)c1 [gemfibrozil] | 7.94
